The conditions of data set [1]: room temperature (not heated), pH 4.5.
From the text: The following table can be used to predict the ratio of components required to achieve the indicated amiodarone concentrations at room temperature (not heated) and pH 4.5.
The conditions of data set [2]: pH 4.5. The text has this: The mixture can optionally further comprise a buffer or other charged species wherein the concentration of the buffer or other charged species is less than about 0.5M.
[3] abbreviates: SBE7-β-CD 0.5% w/v (0.00231 Molar).
[4] abbreviates: SBE7-β-CD 1% w/v (0.00462 Molar).
Setting [5] is: SBE7-β-CD 3% w/v (0.0139 Molar).
Setting [6] is: SBE7-β-CD 5% w/v (0.0231 Molar).
The mark [7] stands for this setting: SBE7-β-CD 30% w/v (0.139 Molar).
The mark [8] stands for this setting: SBE7-β-CD 50% w/v (0.231 Molar).
The mark [9] stands for this setting: SBE7-β-CD 80% w/v (0.370 Molar), by extrapolation of phase solubility data.

Read-outs that look alike come from different tables or passages of the source.

On to `CCCCc1oc2ccccc2c1C(=O)c1cc(I)c(OCCN(CC)CC)c(I)c1.Cl` [Amiodarone HCl, (2-butyl-3-benzofuranyl)[4-[2-(diethylamino)ethoxy]-3,5-diiodophenyl]methanone hydrochloride], for which the “Amiodarone (Ami)” value in data set [1] (setting [3]) worked out at 0.482 mg/mL; in data set [1] (setting [4]), 3.0 mg/mL; in data set [1] (setting [5]) it was 20.6 mg/mL; in data set [1] (setting [6]) it was 28.8 mg/mL; in data set [1] (setting [7]) it was 53.8 mg/mL; in data set [1] (setting [8]), 72.2 mg/mL. Also, the “Amiodarone (Ami)” value in data set [1] (setting [9]) is given as 100.8 mg/mL. For the same compound, the “Amiodarone (Ami) Molar” value in data set [1] (setting [3]) was 0.000708 Molar; in data set [1] (setting [4]), 0.0045 Molar; in data set [1] (setting [5]), 0.03019 Molar; in data set [1] (setting [6]), 0.0423 Molar; in data set [1] (setting [7]), 0.079 Molar; in data set [1] (setting [8]), 0.106 Molar. Further, the “Amiodarone (Ami) Molar” value in data set [1] (setting [9]) is recorded as 0.148 Molar.

Consider “dimethyl-beta cyclodextrin [Methyl (DS˜14)]”, for which, in data set [2], the “times SBE7-β-CD is more effective at solubilizing amiodarone than the named cyclodextrin” value was 1.7 times.

Values taken from US6869939B2, “Formulations containing amiodarone and sulfoalkyl ether cyclodextrin” (CyDex, Inc., priority 2002, dated 2005).
